Assay results from ChEMBL document CHEMBL4373652, “Mechanism of thienopyridone and iminothienopyridinedione inhibition of protein phosphatases” (Medchemcomm, 2019).
Calls of active or inactive are those of the source. The calls are words filed in the database; no cut-off is given here.

How the values were obtained:
[1] = Induction of TCEP oxidation assessed as increase in rate of reduction of resazurin at 5 uM after 3 to 5 secs by resazurin based assay
[2] = Induction of TCEP oxidation at 1 mM in 80% d6-acetone and 20% d6-DMSO incubated for 2 hrs by 15N-1H NMR spectroscopy relative to control
Mus musculus = species on record: Mus musculus; experiment: Inhibition of mouse His-tagged PRL3 C49A mutant at 0.6 uM using DiFMUP as substrate preincubated with enzyme for 10 mins prior to substrate addition by fluorescence based assay relative to control
[3] = Induction of glutathione oxidation at 1 mM incubated for 2 hrs in 80% d6-DMSO and 20% D2O by 15N-1H NMR spectroscopy relative to control
[4] = target: Protein tyrosine phosphatase type IVA 3 (Mus musculus) (UniProt Q9D658); experiment: Inhibition of mouse His-tagged wild type PRL3 at 0.6 uM using DiFMUP as substrate preincubated with enzyme for 10 mins prior to substrate addition by fluorescence based assay relative to control
Protein tyrosine phosphatase type IVA 3 (Mus musculus), sequence (Q9D658 whole entry): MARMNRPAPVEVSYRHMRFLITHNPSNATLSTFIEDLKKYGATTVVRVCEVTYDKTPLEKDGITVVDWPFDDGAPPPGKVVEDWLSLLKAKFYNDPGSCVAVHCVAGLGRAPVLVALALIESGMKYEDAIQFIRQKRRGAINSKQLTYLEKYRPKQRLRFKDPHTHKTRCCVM

[5] = target: T1, Tyrosine-protein phosphatase non-receptor type 1 (Homo sapiens) (UniProt P18031); experiment: Inhibition of human PTP1B at 25 nM using DiFMUP as substrate preincubated with enzyme prior to substrate addition by fluorescence based assay; details: TDE = time-dependent effect
T1 sequence (whole entry): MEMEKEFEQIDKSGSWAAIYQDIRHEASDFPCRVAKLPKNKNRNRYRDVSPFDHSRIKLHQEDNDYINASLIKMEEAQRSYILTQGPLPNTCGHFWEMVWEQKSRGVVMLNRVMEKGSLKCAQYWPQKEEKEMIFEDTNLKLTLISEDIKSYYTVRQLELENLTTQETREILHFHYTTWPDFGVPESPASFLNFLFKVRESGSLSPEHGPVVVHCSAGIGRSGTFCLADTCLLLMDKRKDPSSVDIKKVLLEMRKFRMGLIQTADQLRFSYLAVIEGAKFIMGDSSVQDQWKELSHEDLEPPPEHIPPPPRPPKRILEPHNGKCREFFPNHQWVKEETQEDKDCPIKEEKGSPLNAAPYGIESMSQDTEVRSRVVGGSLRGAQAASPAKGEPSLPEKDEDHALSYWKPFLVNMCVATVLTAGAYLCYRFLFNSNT

[6] = Induction of TCEP oxidation assessed as increase in rate of reduction of resazurin at 5 uM incubated up to 2 hrs by resazurin based assay
[7] = target: T2, Receptor-type tyrosine-protein phosphatase O (Homo sapiens) (UniProt Q16827); experiment: (§1) Inhibition of recombinant human N-terminal His-tagged PTPRO expressed in bacterial expression system assessed as rate of product DiFMU formed at 2 uM using DiFMUP as substrate preincubated with enzyme for 2.5 hrs prior to substrate addition measured for 1 min by fluorescence based assay (reference value: 209.7 nM/sec)
T2 sequence (whole entry): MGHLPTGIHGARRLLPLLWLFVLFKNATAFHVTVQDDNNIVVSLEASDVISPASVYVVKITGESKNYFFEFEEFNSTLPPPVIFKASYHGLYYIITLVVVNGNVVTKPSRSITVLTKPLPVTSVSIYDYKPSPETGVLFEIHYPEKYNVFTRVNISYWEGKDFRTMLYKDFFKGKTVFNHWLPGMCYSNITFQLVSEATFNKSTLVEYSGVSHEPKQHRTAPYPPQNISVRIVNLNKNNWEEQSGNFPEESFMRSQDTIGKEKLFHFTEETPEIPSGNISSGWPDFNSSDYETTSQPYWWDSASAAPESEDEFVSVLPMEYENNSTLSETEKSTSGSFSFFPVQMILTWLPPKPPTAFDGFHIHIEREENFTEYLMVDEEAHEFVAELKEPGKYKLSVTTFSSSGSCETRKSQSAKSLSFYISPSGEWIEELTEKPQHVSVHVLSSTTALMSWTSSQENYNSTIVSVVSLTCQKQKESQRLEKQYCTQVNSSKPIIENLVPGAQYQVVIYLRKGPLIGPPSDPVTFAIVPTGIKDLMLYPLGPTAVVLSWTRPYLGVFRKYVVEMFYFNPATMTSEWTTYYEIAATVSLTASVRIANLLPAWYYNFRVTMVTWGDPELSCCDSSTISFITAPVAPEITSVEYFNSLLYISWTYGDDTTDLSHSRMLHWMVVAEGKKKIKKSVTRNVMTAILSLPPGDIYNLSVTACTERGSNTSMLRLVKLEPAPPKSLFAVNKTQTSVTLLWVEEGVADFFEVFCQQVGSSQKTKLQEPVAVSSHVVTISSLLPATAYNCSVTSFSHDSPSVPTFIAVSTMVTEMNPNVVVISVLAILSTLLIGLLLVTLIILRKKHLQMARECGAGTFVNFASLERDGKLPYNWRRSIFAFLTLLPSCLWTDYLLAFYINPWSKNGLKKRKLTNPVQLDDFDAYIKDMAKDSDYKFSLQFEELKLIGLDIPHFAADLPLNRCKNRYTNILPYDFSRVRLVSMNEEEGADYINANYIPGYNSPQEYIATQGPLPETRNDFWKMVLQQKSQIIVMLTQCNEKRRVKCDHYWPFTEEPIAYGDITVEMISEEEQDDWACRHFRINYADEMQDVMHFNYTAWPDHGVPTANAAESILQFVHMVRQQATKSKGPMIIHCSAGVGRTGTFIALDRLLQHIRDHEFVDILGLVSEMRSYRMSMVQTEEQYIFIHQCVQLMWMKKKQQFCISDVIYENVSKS

Homo sapiens = species on record: Homo sapiens; experiment: as §1, with “C-terminal 6His-tagged PTPN22 G126V/V147G double mutant” for “N-terminal His-tagged PTPRO”, “followed by” for “prior to”, “11.9” for “209.7”
[8] = target: T2, Receptor-type tyrosine-protein phosphatase O (Homo sapiens); experiment: Inhibition of recombinant human N-terminal His-tagged PTPRO expressed in bacterial expression system assessed as enzyme residual activity at 2 uM using DiFMUP as substrate preincubated with enzyme for 2.5 hrs prior to substrate addition measured for 1 min by fluorescence based assay
[9] = target: T3, Receptor-type tyrosine-protein phosphatase C (Homo sapiens) (UniProt P08575); experiment: Inhibition of C-terminal 6His-tagged PTPRC (627-1228 residues) (unknown origin) expressed in Escherichia coli BL21 (DE3) at 2 uM using DiFMUP as substrate preincubated with enzyme and catalase for 2.5 hrs prior to substrate addition measured for 1 min by fluorescence based assay
T3 sequence (whole entry): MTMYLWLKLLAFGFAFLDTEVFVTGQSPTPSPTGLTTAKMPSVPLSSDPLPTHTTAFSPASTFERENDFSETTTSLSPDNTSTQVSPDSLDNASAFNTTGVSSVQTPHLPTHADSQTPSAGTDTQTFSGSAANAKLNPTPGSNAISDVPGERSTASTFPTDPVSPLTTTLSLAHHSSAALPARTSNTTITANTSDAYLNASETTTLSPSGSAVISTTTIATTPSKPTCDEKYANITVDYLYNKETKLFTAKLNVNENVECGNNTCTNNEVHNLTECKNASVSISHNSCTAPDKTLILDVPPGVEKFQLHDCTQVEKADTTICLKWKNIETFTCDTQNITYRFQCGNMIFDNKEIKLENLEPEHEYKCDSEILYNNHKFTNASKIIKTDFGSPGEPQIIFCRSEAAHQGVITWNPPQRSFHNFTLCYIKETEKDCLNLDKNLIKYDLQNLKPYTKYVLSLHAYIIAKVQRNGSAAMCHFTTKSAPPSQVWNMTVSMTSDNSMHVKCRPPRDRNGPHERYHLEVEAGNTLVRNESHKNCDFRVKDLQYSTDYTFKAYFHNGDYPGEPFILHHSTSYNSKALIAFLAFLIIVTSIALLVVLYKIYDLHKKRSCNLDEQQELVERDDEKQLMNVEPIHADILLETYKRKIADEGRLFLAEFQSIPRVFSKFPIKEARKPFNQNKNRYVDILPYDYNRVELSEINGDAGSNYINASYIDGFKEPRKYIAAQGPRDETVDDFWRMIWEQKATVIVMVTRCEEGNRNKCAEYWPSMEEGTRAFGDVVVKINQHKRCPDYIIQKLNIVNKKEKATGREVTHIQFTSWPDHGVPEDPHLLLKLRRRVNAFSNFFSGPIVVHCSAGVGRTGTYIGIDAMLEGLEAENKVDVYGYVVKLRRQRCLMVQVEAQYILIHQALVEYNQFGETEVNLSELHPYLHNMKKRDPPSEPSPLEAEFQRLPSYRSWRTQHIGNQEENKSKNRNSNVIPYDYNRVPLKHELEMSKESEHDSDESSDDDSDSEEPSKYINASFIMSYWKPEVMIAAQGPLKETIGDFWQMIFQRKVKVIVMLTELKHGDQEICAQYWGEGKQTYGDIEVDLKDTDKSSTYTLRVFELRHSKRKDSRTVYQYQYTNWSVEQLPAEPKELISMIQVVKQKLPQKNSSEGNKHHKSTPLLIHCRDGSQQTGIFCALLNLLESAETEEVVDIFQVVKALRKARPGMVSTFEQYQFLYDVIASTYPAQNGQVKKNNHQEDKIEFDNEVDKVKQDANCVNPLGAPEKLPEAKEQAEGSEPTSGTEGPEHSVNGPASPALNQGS

SMILES	Activity [1]	fold change (FC) [2]	inhibition (Mus musculus) [%]	Activity [3] [%]	inhibition [4] [%]	inhibition [5]	Activity [6]	Activity [7] [nM/s]	Activity (Homo sapiens) [nM/s]	Activity [8] [%]	inhibition [9]
Nc1c[nH]c(=O)c2cc(-c3ccccc3)sc12	Active	5	10	70	55	Tde	Active				
N=C1C(=O)NC(=O)c2cc(-c3ccccc3)sc21		20				Tde	Active	15.3	0.3	7.3	inactive
